Patent US5075322A, “Selenophen derivatives, a preparation process of the same and therapeutical compositions containing them” (Societe de Conseils de Recherches et d'Applications …, priority 1989, dated 1991)

Legend:
[1] = tested on: ovalbumine-induced bronchospasm; test: ovalbumine-induced bronchospasm in anaesthetized passively sensitized guinea-pigs; format: in vivo
Experimental: In the ovalbumine-induced bronchospasm in anaesthetized passively sensitized guinea-pigs, compound XI and ketotifen, administered 1 hour before the injection of ovalbumine, inhibit the bronchoconstriction (>90%) in a dose-dependant-manner respectively with following ED50 (P.O.)
For both products, the activity disappears at 24 hours.
The kinetic results, after administration by oral route of the said compounds at 0.1 mg/kg and 0.05 mg/kg (P.O.), for 1 to several hours before ovalbumine injection (1 mg/kg), are reported respectively in tables 1 and 2.
(§1) The different symbols NS, *, ** and *** which may be found in the different tables, mean that the result is respectively not significative, significative, very significative and highly significative.

[2] = tested on: ovalbumine-induced bronchospasm; test: ovalbumine-induced bronchospasm in actively sensitized guinea pigs; format: in vivo; conditions: Table III, 0.1 mg/kg PO
Description: as §1

[3] = tested on: ovalbumine-induced bronchospasm; test: ovalbumine-induced bronchoconstriction in passively sensitized rats; format: in vivo; conditions: for Percentage of bronchoconstriction / Percentage of effect: Table IV
Description: as §1

[4] = tested on: histamine induced bronchospasm; test: histamine-induced bronchospasm in artificially ventilated anaesthetized guinea pigs; format: in vivo; conditions: for % of bronchoconstriction / % of effect: Table V, 0.1 mg/kg PO
Experimental: as §1
The kinetic results of the administration of compound XI and ketotifen by oral route at 0.1 mg/kg (P.O.), 1 to 27 h histamine injection (15 mg IV), are reported in table 5.

[5] = tested on: B.S.A.-induced immune lethality in mice; test: B.S.A.-induced immune lethality (anaphylactic shock) in actively sensitized mice; format: in vivo
Description: as §1
At the same dose, ketotifen has no effect.

rat washed platelets = test: PAF-induced aggregation of rat washed platelets in vitro; format: cell-based; conditions: Platelet, PAF 5.10^-10 M
Description: In vitro: effects on aggregation (IC50) induced by PAF (5·10^-10 M), rat washed platelets are as follow: IC50 Compound XI 2.10^-6 M. IC50 Ketotifen 10^-5 M.

PAF induced bronchospasm = test: PAF-induced bronchospasm in artificially-ventilated anaesthetized guinea pigs; format: in vivo; conditions: for Percentage of bronchoconstriction / Percentage of effect: Table VII, PAF 60 mg/kg IV
Description: as §1

[6] = anti-allergic activity (general statements)
[7] = tested on: histamine induced bronchospasm; test: histamine-induced bronchospasm in artificially ventilated anaesthetized guinea pigs; format: in vivo; conditions: Cavia porcellus, po, 1 h, read-out: ED50 (P.O.)
[8] = Table I, 0.1 mg/kg PO, pretreatment 1 h
[9] = Table I, 0.1 mg/kg PO, pretreatment 3 h
[10] = Table I, 0.1 mg/kg PO, pretreatment 6 h
[11] = Table I, 0.1 mg/kg PO, pretreatment 9 h
[12] = Table I, 0.1 mg/kg PO, pretreatment 15 h
[13] = Table I, 0.1 mg/kg PO, pretreatment 18 h
[14] = Table I, 0.1 mg/kg PO, pretreatment 21 h
[15] = Table I, 0.1 mg/kg PO, pretreatment 24 h
[16] = Table II, 0.05 mg/kg PO, pretreatment 1 h
[17] = Table II, 0.05 mg/kg PO, pretreatment 3 h
[18] = Table II, 0.05 mg/kg PO, pretreatment 6 h
[19] = Table II, 0.05 mg/kg PO, pretreatment 9 h
[20] = Table II, 0.05 mg/kg PO, pretreatment 15 h
[21] = Table II, 0.05 mg/kg PO, pretreatment 18 h
[22] = Table II, 0.05 mg/kg PO, pretreatment 21 h

CN1CCC(=C2c3ccccc3CC(=O)c3[se]ccc32)CC1 [Compound XI, 4-(1-methyl 4-piperidyliden) 9,10-dihydro 4H-benzo [4,5] cyclohepta [1,2-b] selenophen 10-one]
time at which the activity disappears ([1]; 0.1 mg/kg and 0.05 mg/kg P.O.): 24 h | ED50 ([1]; Cavia porcellus, po, 1 h, read-out: ED50 (P.O.)): 0.0572 µmol/kg | % of bronchoconstriction [1, 8]: 6.9 ± 1.0% | % of effect [1, 8]: -91.5 ± 1.3% | % of bronchoconstriction [1, 9]: 3.9 ± 1.1% | % of effect [1, 9]: -93.7 ± 1.7% | % of bronchoconstriction [1, 10]: 15.0 ± 11.5% | % of effect [1, 10]: -75.9 ± 18.4% | % of bronchoconstriction [1, 11]: 35.7 ± 18.8% | % of effect [1, 11]: -60.1 ± 21.1% | % of bronchoconstriction [1, 12]: 38.9 ± 13.7% | % of effect [1, 12]: -50.7 ± 17.3% | % of bronchoconstriction [1, 13]: 36.8 ± 17.5% | % of effect [1, 13]: -62.0 ± 18.1% | % of bronchoconstriction [1, 14]: 73.3 ± 14.2% | % of effect [1, 14]: -24.3 ± 14.7% | % of bronchoconstriction [1, 15]: 45.4 ± 15.2% | % of effect [1, 15]: -27.1 ± 24.4% | % of bronchoconstriction [1, 16]: 13.2 ± 5.4% | % of effect [1, 16]: -85.1% | % of bronchoconstriction [1, 17]: 17.7 ± 7.0% | % of effect [1, 17]: -80.5% | % of bronchoconstriction [1, 18]: 38.3 ± 16.5% | % of effect [1, 18]: -60.4% | % of bronchoconstriction [1, 19]: 49.2 ± 16.7% | % of effect [1, 19]: -49.2% | % of bronchoconstriction [1, 20]: 61.6 ± 18.7% | % of effect [1, 20]: -6.5% | % of bronchoconstriction [1, 21]: 50.7 ± 20.4% | % of effect [1, 21]: -48.3% | % of bronchoconstriction [1, 22]: 94.6 ± 4.4% | % of effect [1, 22]: -3.5% | inhibition of bronchoconstriction ([1]; administered 1 hour before ovalbumine, P.O., dose-dependent): > 90% | % of bronchoconstriction ([2]; pretreatment 1 h): 3.5 ± 1.1% | % of effect ([2]; pretreatment 1 h): -96.1 ± 1.3% | % of bronchoconstriction ([2]; pretreatment 3 h): 5.0 ± 1.6% | % of effect ([2]; pretreatment 3 h): -93.4 ± 2.1% | % of bronchoconstriction ([2]; pretreatment 6 h): 2.1 ± 0.6% | % of effect ([2]; pretreatment 6 h): -97.3 ± 0.8% | % of bronchoconstriction ([2]; pretreatment 9 h): 35.5 ± 15.9% | % of effect ([2]; pretreatment 9 h): -61.1 ± 22.2% | % of bronchoconstriction ([2]; pretreatment 15 h): 42.2 ± 16.6% | % of effect ([2]; pretreatment 15 h): -50.6 ± 19.5% | % of bronchoconstriction ([2]; pretreatment 18 h): 67.1 ± 19.0% | % of effect ([2]; pretreatment 18 h): +22.7 ± 34.8% | % of bronchoconstriction ([2]; pretreatment 21 h): 50.1 ± 21.6% | % of effect ([2]; pretreatment 21 h): -8.3 ± 39.5% | Percentage of bronchoconstriction ([3]; 0.1 mg/kg PO): 18.1 ± 6.3% | Percentage of effect ([3]; 0.1 mg/kg PO): -49.4% | Percentage of bronchoconstriction ([3]; 1 mg/kg PO): 11.2 ± 2.7% | Percentage of effect ([3]; 1 mg/kg PO): -68.7% | inhibition of bronchoconstriction (in words) ([3]; passively sensitized rats): inhibits the bronchoconstriction in a dose-dependant manner | % of bronchoconstriction ([4]; 1 h): 2.0 ± 0.8% | % of effect ([4]; 1 h): -97.5 ± 1.0% | % of bronchoconstriction ([4]; 3 h): 1.0 ± 1.0% | % of effect ([4]; 3 h): -98.8 ± 1.2% | % of bronchoconstriction ([4]; 6 h): 5.4 ± 3.2% | % of effect ([4]; 6 h): -93.5 ± 3.8% | % of bronchoconstriction ([4]; 9 h): 4.9 ± 1.7% | % of effect ([4]; 9 h): -93.6 ± 2.3% | % of bronchoconstriction ([4]; 15 h): 36.6 ± 8.4% | % of effect ([4]; 15 h): -48.2 ± 11.8% | % of bronchoconstriction ([4]; 18 h): 34.9 ± 18.1% | % of effect ([4]; 18 h): 61.7 ± 19.9% | % of bronchoconstriction ([4]; 21 h): 52.9 ± 9.7% | % of effect ([4]; 21 h): 37.6 ± 11.5% | % of bronchoconstriction ([4]; 24 h): 37.9 ± 9.9% | % of effect ([4]; 24 h): -42.3 ± 15.0% | % of bronchoconstriction ([4]; 27 h): 76.8 ± 10.2% | % of effect ([4]; 27 h): +6.3 ± 14.1% | inhibition of bronchoconstriction (in words) ([4]; administered 1 hour before histamine (15 mg IV)): inhibit significantly the bronchoconstriction in a dose-dependant-manner | duration of total inhibition of the bronchospasm ([4]; during the first hours, 0.1 mg/kg P.O.): 9 h | protective effect (in words) ([5]; 0.275 mg/kg P.O.): shows a protective effect | Mortality at 24 hours, % of mortality ([5]; 0.275 mg/kg PO): 20% | Mortality at 24 hours, % of variation ([5]; 0.275 mg/kg PO): -67.5% | Mortality at 24 hours, number of killed ([5]; 0.275 mg/kg PO): 2/10 | Mortality at 24 hours, % of mortality ([5]; 0.550 mg/kg PO): 10% | Mortality at 24 hours, % of variation ([5]; 0.550 mg/kg PO): -83.7% | Mortality at 24 hours, number of killed ([5]; 0.550 mg/kg PO): 1/10 | IC50 (rat washed platelets): 2 µM | inhibition of PAF induced bronchospasm (in words) (PAF induced bronchospasm; 1 hour before PAF, 0.1 mg/kg): significantly inhibits the bronchospasm | Percentage of bronchoconstriction (PAF induced bronchospasm; 0.1 mg/kg PO): 29.4 ± 7.9% | Percentage of effect (PAF induced bronchospasm; 0.1 mg/kg PO): -62.5% | Percentage of bronchoconstriction (PAF induced bronchospasm; 1 mg/kg PO): 23.0 ± 9.7% | Percentage of effect (PAF induced bronchospasm; 1 mg/kg PO): -70.6% | anti-allergic activity compared with compound X [6]: higher activity than compound X | histamine and ovalbumine antagonist activity ([6]; oral drug): powerful histamine and ovalbumine antagonist | ED50 [7]: 0.0169 µmol/kg
